Patent US10449245B2 (priority 2014, dated 2019)
Where “and” joins values, the source holds several entries; their conditions need not be identical. Equal entries are not always repeated.

Test system: Histone H3 acetylation in lymphocytes
Assay: Lymphocyte histone H3 acetylation by flow cytometry, REDUC clinical trial Part A
Assay type: in vivo, human
Parameters: key to Histone Acetylation, Mean: MFI, background (isotype control) MFI subtracted
Conditions: for Histone Acetylation (anti-acetyl histone H3 MFI in lymphocytes): individual subjects 1101, 1102, 1103, 1105, 1106, 1107 = c1-c6; for Histone Acetylation (anti-acetyl histone H3 MFI in lymphocytes) / Histone Acetylation, Mean: romidepsin 5 mg/m^2 i.v. days 0, 7, 14; for Histone Acetylation, Mean: mean of subjects
Method: Part A of the clinical study contained three phases. First, a pre-treatment phase of 2-4 weeks (visit 1-visit 2a) to confirm the stability of the latent HIV-1 reservoir and determine baseline HIV-1 T lymphocyte specific immunity. Second, a viral reactivation phase of 3 weeks (visit 2 to visit 7) consisting of one cycle of romidepsin infusions at a dosing of 5 mg/m^2 administered intravenously over a 4 hour period. De-escalation down to 2.5 mg/m^2 was planned in case of dose-limiting toxicity was observed. Romidepsin was infused on days 0, 7, and 14. Third, a post-activation phase of ˜9 weeks (visit 8 to visit 11) to assess the effect of romidepsin on the size of latent HIV-1I reservoir.
Histone H3 acetylation was measured in lymphocytes using flow cytometry with intracellular cytokine staining on fresh isolated PBMCs. Freshly isolated PBMC's were fixated, permeabilised and stained with acetylation-specific antibodies, providing the possibility to evaluate epigenetic modifications on Histones (Rigby L, Muscat A, Ashley D, Algar E. Epigenetics 2012; 7(8):875-882). Briefly, PBMCs (1×10^6) were resuspended in 3 ml ice-cold PBS/1% FBS and centrifuged, then vortexed to dissolve pellet and fixative added, 100 μl 2% PFA (ice-cold), vortexed briefly and incubated on ice for 15 min. Cells were then washed in 4 ml PBS, resuspend in 200 μl PBS and stored at 4° C. until staining. Samples were washed with 3 ml FACS buffer and vortexed to dissolve cell pellet prior to adding 100 μl 0.2% Triton X-100, vortex briefly and incubate for 10 min. at room temperature (RT). Samples were then washed with FACS buffer, 600 μl Block (PBS/10% FBS) was added, sample vortexed to resuspend cell pellet and incubate for 20 min at RT. After washing with 3 ml FACS buffer 5 μl primary antibody Anti-acetyl histone H3 (rabbit) at 200 μg/ml (Merck Millipore) or isotype control at 200 μg/ml (normal rabbit serum, LifeTechnologie) was added, and samples vortexed to resuspend cell pellet, and incubated for 1 hour at RT. Following this samples […]), vortexed to resuspend cell pellet and incubated for 1 hour in the dark (RT). Finall samples were washed with FACS buffer and resuspended in 80 μl PBS and analyzed by FACS (50 000 events, anti-acetyl histone H3 Median Fluorescence Intensity, MFI, calculated by subtracting background MFI from isotype control).

[1] = visit 2A (day 0, pre-treatment)

C/C=C1\NC(=O)[C@H]2CSSCC/C=C/[C@H](CC(=O)N[C@H](C(C)C)C(=O)N2)OC(=O)[C@H](C(C)C)NC1=O [romidepsin, (1S,4S,7Z,10S,16E,21R)-7-ethylidene-4,21-bis(1-methylethyl)-2-oxa-12,13-dithia-5,8,20,23-tetraazabicyclo[8.7.6]tricos-16-ene-3,6,9,19,22-pentone]
Lymphocyte histone H3 acetylation, maximum fold range relative to baseline (following each romidepsin administration, 5 mg/m^2): 3.7-7.7 fold | Histone Acetylation (anti-acetyl histone H3 MFI in lymphocytes) [1]: 1181 and 1258 and 562 and 1020 and 309 and 372 | Histone Acetylation, Mean [1]: 783.6667 | Histone Acetylation (anti-acetyl histone H3 MFI in lymphocytes) (visit 2B (day 0 + 4 h)): 3493 and 1534 and 3481 and 2473 and 2360 and 2463 | Histone Acetylation, Mean (visit 2B (day 0 + 4 h)): 2634 | Histone Acetylation (anti-acetyl histone H3 MFI in lymphocytes) (visit 3 (day 1)): 3465 and 2197 and 2451 and 2216 and 2475 and 1757 | Histone Acetylation, Mean (visit 3 (day 1)): 2426.833 | Histone Acetylation (anti-acetyl histone H3 MFI in lymphocytes) (visit 4 (day 3)): 3102 and 2964 and 3201 and 4130 and 3302 and 2767 | Histone Acetylation, Mean (visit 4 (day 3)): 3244.333 | Histone Acetylation (anti-acetyl histone H3 MFI in lymphocytes) (visit 5A (day 7)): 2065 and 2740 and 1284 and 2042 and 2863 and 596 | Histone Acetylation, Mean (visit 5A (day 7)): 1931.667 | Histone Acetylation (anti-acetyl histone H3 MFI in lymphocytes) (visit 5B (day 7 + 4 h)): 5363 and 4597 and 4059 and 3198 and 4239 and 2214 | Histone Acetylation, Mean (visit 5B (day 7 + 4 h)): 3945 | Histone Acetylation (anti-acetyl histone H3 MFI in lymphocytes) (visit 6 (day 10)): 2788 and 4124 and 3402 and 3859 and 3748 and 3280 | Histone Acetylation, Mean (visit 6 (day 10)): 3533.5 | Histone Acetylation (anti-acetyl histone H3 MFI in lymphocytes) (visit 7A (day 14)): 2486 and 3236 and 1789 and 1794 and 1438 and 1211 | Histone Acetylation, Mean (visit 7A (day 14)): 1992.333 | Histone Acetylation (anti-acetyl histone H3 MFI in lymphocytes) (visit 7B (day 14 + 4 h)): 7228 and 3580 and 3317 and 4101 and 5467 and 3444 | Histone Acetylation, Mean (visit 7B (day 14 + 4 h)): 4522.833 | Histone Acetylation (anti-acetyl histone H3 MFI in lymphocytes) (visit 8 (day 17)): 3875 and 4502 and 3147 and 3675 and 3572 | Histone Acetylation, Mean (visit 8 (day 17)): 3754.2 | Histone Acetylation (anti-acetyl histone H3 MFI in lymphocytes) (visit 9 (day 21)): 741 and 2416 and 1607 and 1923 and 1179 and 2467 | Histone Acetylation, Mean (visit 9 (day 21)): 1722.167 | Histone Acetylation (anti-acetyl histone H3 MFI in lymphocytes) (visit 10 (day 56)): 1733 and 3579 and 2622 and 3035 and 1592 and 1865 | Histone Acetylation, Mean (visit 10 (day 56)): 2404.333 | Histone Acetylation (anti-acetyl histone H3 MFI in lymphocytes) (visit 11 (day 84)): 1243 and 1823 and 1292 and 1287 and 1059 and 970 | Histone Acetylation, Mean (visit 11 (day 84)): 1279
